# Measurements as given in patent US20190337989A1, “IMMUNITY INDUCER” (priority 2016, published 2019).
# “And” between values parts separate entries of the source, which are not always exact repeats. Identical values can stand only once. “Also recorded” adds a separate entry of the source. Like-named read-outs stand apart in the source and are kept apart here.
# Key:
# [1] = tested on: avian influenza virus; design: species or system Balb/c mice; details: mouse, in vivo, ip
# [2] = tested on: avian influenza virus; design: species or system mice; details: mouse, in vivo, iv
substance,measurement,setting,value
Core-[PEG-STQKAID]4 [avian influenza MAP4],IgG concentration,[1],higher than 100 ng/ml
same,induction of IgG and IgM antibodies against the avian influenza virus,[1],enabled induction of IgG and IgM antibodies
same,mice in which IgM antibodies were induced,[1],5 out of 5 mice and increased in all mice
same,mice with apparent increase in the IgG level,[1],3 mice out of 5 mice
same,subclasses exhibiting increased IgG antibody levels,[1],IgG and IgG3; also recorded: IgG1 and IgG3
same,total level of IgG antibody converted to anti-FLAG antibody,[1],157 ng/mL and 154 ng/mL and 106 ng/mL and 122 ng/mL and 148 ng/mL and 83 ng/mL
same,induction of IgG and IgM antibodies against the avian influenza virus,[2],found to be induced; also recorded: enabled induction of IgG and IgM antibodies
